# Experimental data published in a melting point compilation (Tetko et al.; mined from patent text by program, amines drawn as free bases though some values may be those of a salt).
row,melting point [°C],SMILES
1,117 to 118,COc1ccc(CNc2nc(SC)ncc2C(=O)OCc2ccccn2)cc1Cl
2,180,CN(c1ccccc1[N+](=O)[O-])S(=O)(=O)c1cccnc1Cl
3,96 to 98,CCc1cccc(NC(=N)Nc2cccc3ccccc23)c1
4,170,Cn1c(/C=C/C(O)CC(O)CC(=O)O)c(-c2ccccc2)c2ccccc2c1=O (stereo unspecified)
5,200,Oc1nc(C2CC2)ncc1Br
6,42 to 43.5,CCCCCCCCCCCCCCCCOCC1OCCCC1=O (stereo unspecified)
7,79 to 80,Cc1cccc(C)c1N(C)C(=O)Cl
8,113 to 114,CC(C)=NNC(=O)NCCCN(C)CCCNC(=O)NN=C(C)C
9,174,NC(=O)N(O)Cc1ccc(-c2ccccc2)s1
10,181,COc1cc(OC)nc(NC(=O)NS(=O)(=O)c2ncccc2-c2ccccc2)n1
11,114,CC(C)(C)OC(=O)NCC1CCc2cc(O)ccc2C1 (stereo unspecified)
12,54 to 58,CCN(C=O)c1nc2ccc(CCc3ccco3)cc2o1
13,59 to 60,CC(C)(O)c1cc(C(F)(F)F)cc(C(F)(F)F)c1
14,30 to 31,CCCCCCCCCCCCOc1ccc(CP(=O)(OC)OC)cc1
15,188 to 190,CCOCc1nc2c(N)nc3cc(/C=C/S(=O)(=O)c4ccccc4)ccc3c2n1CCCOC(C)C
16,145 to 147,O=C1Nc2c(ccc3c2CCCC3)SC1CCCN1CCN(c2ccc(F)cc2)CC1 (stereo unspecified)
17,54 to 74,CCOC(=O)c1c(NC(C)=O)sc2c1C=CC=CC=CC=CC=C2
18,78 to 79,CCc1ccc2c(O)cnn2c1
19,212 to 214,COC(=O)c1ccc2oc3c(c(=O)c2c1)CCC3=Cc1ccc(C)cc1C
20,48 to 50,Cc1onc2c1C(=O)N(C(C)(C)C)C2=O
21,152 to 154,Cn1cc(-c2cccc(Br)c2)c(=O)c(-c2ccc(Cl)c(Cl)c2)c1
22,189 to 190,COc1cc(Nc2c(C#N)cnc3cc(-c4ccc(CN5CCN(CCO)CC5)cc4)sc23)c(Cl)cc1Cl
23,175 to 178,CSc1nc2cc(C(F)(F)F)ccc2n1NC(C)=O
24,234 to 236,O=C(Nc1cc(Cl)cc(Cl)c1)Nc1ccc(Cl)cc1-c1nnn[nH]1

row,melting point [°C],SMILES
1,280,CN1CCN(c2ncc3c(=O)c(C(=O)O)cn(C)c3n2)CC1
2,129 to 131,CCC(CC)N(O)C(=O)Nc1ccc(Br)cc1
3,145 to 147,O=C(Nc1ccccc1S(=O)(=O)NCCCn1ccnc1)c1cccc(C(F)(F)F)c1
4,139 to 142,CSc1cn(C)c2cc(C)sc2c1=O
5,260 to 261,NC(=O)c1cccc2c1nc(-c1c(F)cccc1F)n2Cc1c(F)cccc1F
6,197 to 198,c1ccc(-c2ncc3[nH]c4c(c3n2)CCCC4)cc1
7,60,Cc1ccc(-c2cccnc2N2CCC(C(=O)O)CC2)cc1C(=O)NCC12CC3CC(CC(C3)C1)C2
8,204 to 206,CCCc1nn(C)c(C(N)=O)c1NC(=O)c1cc(S(=O)(=O)N2CCN(C)CC2)ccc1OCC
9,46.5 to 47.5,COc1ccccc1OCCN(Cc1ccccc1)C(=O)CCc1c[nH]c2ccccc12
10,124 to 126,COC(=O)c1c(NCc2ccc(OC)c(Cl)c2)nc(SC)nc1OC
11,214 to 216,CCCn1cnc2nc(-c3ccc(Cl)cc3)nn2c1=S
12,> 250,CO[C@@H]1C[C@H]2[C@H](C(=O)O)[C@H]2[C@]1(N)C(=O)O
13,163 to 165,CNc1c(C#N)cnn1-c1ccc(Cl)c(Cl)c1Cl
14,196 to 197,Fc1ccc2c(C3=CCC4(CC3)OCCO4)c[nH]c2c1
15,96,CC(C)(C)OC(=O)C(Nc1ccccc1)c1cccc(Cl)c1 (racemic)
16,125 to 126,CCC(C)(C)c1ccc(OCCCNC(=O)c2cc(OS(=O)(=O)CCCOc3ccc(N)cc3)c3ccccc3c2O)c(C(C)(C)CC)c1
17,203 to 204,COC1OCC[C@@H]1N(C(=O)CNC(=O)COc1ccc2c(c1)Nc1ccccc1S2)[C@@H](Cc1ccccc1)C(N)=O (stereo partly specified)
18,187 to 189,COC(=O)c1ccccc1NC(=O)c1cnc(S(C)(=O)=O)nc1
19,254 to 255,Cn1cnc(COc2nn3c(-c4ccc(F)cc4)nnc3cc2-c2ccsc2)n1
20,201,Cc1cc(C#N)cc(C(=O)Nc2ccn(C)n2)n1
21,88 to 91,O=S(=O)(c1ccncc1)C1CCNCC1
22,> 260,CC(=O)Nc1ccc(-c2ccc(C(=O)O)c(=O)[nH]2)cc1
23,116 to 118,O=CN(O)C(CS(=O)(=O)c1ccc(-c2ccc(OC(F)(F)F)cc2)cc1)c1ccccn1 (stereo unspecified)
24,122 to 124,C[C@]1(COc2ccc(N3CCC(Nc4cc(Cl)cc(Cl)c4)CC3)cc2)Cn2cc([N+](=O)[O-])nc2O1

row,melting point [°C],SMILES
1,51 to 52,CC(C)(C)OC(=O)C(=O)C=Cc1cccnc1
2,121 to 122,COc1nc(F)cc2nc(SCc3ccccc3)nn12
3,115 to 119,CC1(C)CCONC1=O
4,191 to 192,O=C(O)/C=C\C(=O)N1CCc2cc(S(=O)(=O)N3CCN(c4cccc(Cl)c4)CC3)ccc21
5,213 to 214,CC(=O)O[C@@H](C)C(=O)Nc1c(C(=O)c2cc(C)ccn2)[nH]c2cc(Cl)ccc12
6,180 to 181,S=c1nc(NCCCOc2cccc(CN3CCCCC3)c2)cc[nH]1
7,88 to 90,CCC(=O)Oc1ccc(C(=O)c2ccc(Sc3ccccc3)cc2)c(O)c1
8,149 to 151,O=C(Nc1ccc(C(F)(F)F)cc1)N1CC2CCc3ccccc3C2=N1 (stereo unspecified)
9,219 to 220,COC(=O)c1cc(C(=O)N(C)C)c2cc(Cc3ccc(F)cc3)cnc2c1O
10,133 to 135,Nc1ccc(C(=O)c2ccccc2)c(F)c1
11,134,CCOC(=O)C1=C(COCCNc2nccs2)NC(C)=C(C(=O)OC)C1c1ccccc1Cl (stereo unspecified)
12,156 to 157,CCOCCCc1ccc(Oc2ccc3c(c2)C=C(C(=O)Nc2ccc(CN(C)C4CCOCC4)cc2)CCS3(=O)=O)cc1
13,160 to 161,COC(=O)c1cccc(C(=O)c2cc(C(=O)OC)cc(OC)c2OC)c1
14,135 to 139,CN(C)Cc1nc2n(n1)-c1cccnc1N(c1ccccc1)C2
15,99 to 102,CCCCCCCCCCCCCCCCCCOc1cc(OCCCOc2ccccc2)cc(N(CC(=O)O)CC(=O)O)c1
16,81 to 82,ClCCCOc1ccc(-n2cncn2)cc1
17,144 to 146,FC(F)(F)Oc1ccc(Nc2cc(N3CCOCC3)nc(-c3ccccc3)n2)cc1
18,92 to 94,Cc1cccc(C(=O)CC2CCCN(C)C2)c1 (stereo unspecified)
19,92,NCC1COc2cc(Cl)cc(-c3ccccc3)c2N1 (stereo unspecified)
20,145 to 146,COc1cc2c3ccc(OC)c(OC)c3n(Cc3ccc(C(F)(F)F)cc3)c2cc1OC
21,51 to 54,CCOC(=O)Nc1c([N+](=O)[O-])cc(C)c(C)c1[N+](=O)[O-]
22,142 to 143,Cc1ccccc1CN1CCN(C(=O)c2ccc(N(CCOC(C)C)C(=O)CCl)cc2)CC1
23,102,N#Cc1ccccc1C(=O)c1ccc(S)cc1
24,170 to 172,Cc1oc(-c2ccccc2)nc1CCOc1ccc(C[C@H](NC(=O)C=Cc2ccccc2C(F)(F)F)C(=O)O)cc1

row,melting point [°C],SMILES
1,100 to 102,CN(C(=O)Nc1nc(OCC(F)(F)F)cc(OCC(F)(F)F)n1)c1ccc(OC(F)(F)F)cc1
2,215,NC(=O)c1sc2nc(N3CCC(NCC(O)c4cccc(F)c4)CC3)cc(C(F)(F)F)c2c1N (stereo unspecified)
3,157 to 159,O=C(NC1CCN(CCCC2=CCc3ccccc32)CC1)c1ccccc1
4,209 to 211,CCNc1nc2cc(Cc3c(C)nc4cc(C)ccn34)ccc2o1
5,124 to 128,Cc1ccc2[nH]c(C)c(-c3ccc(F)cc3)c2c1
6,100 to 101,CN1CCN(C(=O)c2ccc([N+](=O)[O-])cc2)CC1
7,126 to 127,O=C1OC(=O)c2nc(C(Cl)(Cl)Cl)ccc21
8,226 to 228,Nc1ccc([N+](=O)[O-])cc1OCCCCOc1cc([N+](=O)[O-])ccc1N
9,94 to 95,CC(=O)c1ccc(S(=O)(=O)C[N+](=O)[O-])cc1
10,213 to 214,Oc1ccc(C=Cc2cccc(O)c2)cc1
11,54,OC1(c2ccccc2)Cc2ccccc2C1
12,185 to 186,Cn1cc(-c2cccc(C(F)(F)F)c2)c(=O)c(-c2cccs2)c1
13,50,COC(=O)CCCOc1ccc(CNC(=O)C2Cc3ccccc3N2S(=O)(=O)c2ccc(-c3cccc(C(F)(F)F)c3)cc2)cc1 (stereo unspecified)
14,212 to 214,CC1CCC(NC(=O)NS(=O)(=O)c2ccc(CCNC(=O)N3C(=O)c4ccccc4C3C)cc2)CC1 (stereo unspecified)
15,165 to 168,COc1ccc(CNc2nc(C)nc(C)c2Cl)cc1O
16,121 to 122,COc1ccc(C(=O)N2CC[C@@H](O)C2=O)cc1
17,181,OC1CSC(Oc2ccc(-c3cccnc3F)nc2)C(O)C1O (stereo unspecified)
18,141 to 143,O=C(c1ccc(O)c(O)c1)c1cccc(C(Cc2ccccc2)Cc2ccccc2)n1
19,84 to 85,CCCCCCCCCCC(O)c1ccc2oc([N+](=O)[O-])c(-c3ccccc3)c2c1 (stereo unspecified)
20,138 to 141,CN(C)C(=O)c1ccc([N+](=O)[O-])cc1S(=O)(=O)NC(C)(C)C
21,322 to 325,CCc1cc2[nH]c(=O)cc(O)c2c(CC)n1
22,113 to 114,Cc1oc(-c2ccco2)nc1COc1ccc(COc2nn(-c3ccccc3)cc2CO)cc1
23,98 to 99,CC(Oc1ccc(Cl)cc1)c1ccnn2cnnc12 (stereo unspecified)
24,89.5 to 92.5,CN(C)CCCOc1ccc(N(C(=O)c2ccc([N+](=O)[O-])cc2)c2ccccc2)cc1

row,SMILES,melting point [°C]
1,COc1ccc2c(c1)N(C1CN3CCC1CC3)c1ccccc1S2 (stereo unspecified),158
2,c1ccc2sc(N3CCNCC3)nc2c1,63 to 64
3,COC(=O)c1nnc2n1-c1ccc(Cl)cc1C(c1ccccc1)=NC2,216 to 217
4,CCCN(CCC)C1Cc2cccc3c2N(C1)C(=O)C3 (stereo unspecified),86 to 88
5,OC1(c2cnccn2)CN2CCC1C2 (stereo unspecified),180 to 183
